Results from patent US20090176711A1, “INHIBITORS OF AMYLOID PRECURSOR PROTEIN PROCESSING” (priority 2008, published 2009).
“Also recorded” adds a separate entry of the source. Non-standard residues stand in square brackets, D forms with d. No end group written: not given here. *: point of attachment. Biotin = O=C1N[C@H]2[C@H](CS[C@H]2CCCCC(=O)*)N1; Dnp = O=[N+]([O-])c1ccc(*)c([N+](=O)[O-])c1; Mca = COc1ccc2c(CC(=O)*)cc(=O)oc2c1; Ahx = NCCCCCC(=O)O

Key:
[1] = system: APP processing in HEK293-APP cells; test: APP inhibitor activity on HEK293-APP cells (βCTF Western blot); assay type: cell-based, human; conditions: γ-secretase inhibitor and cholesterol added
Description: In the neuronal cells of the brain, APP is processed by α-secretase or β-secretase. To investigate the effects of the inhibitors on the cell, a cell based assay system was developed as described in FIG. 10. C-terminal fragment of APP remaining on the cell membrane was detected by Western blot. The resulting C-terminal fragments, αCTF or βCTF are further processed by γ-secretase. However, if the cells are treated with the γ-secretase inhibitor, this processing is blocked. As a result, αCTF or βCTF accumulate in the cell. If β-secretase inhibitor or APP inhibitor is added, this processing is blocked and βCTF disappears.
In addition, γ-secretase inhibitor and cholesterol were added to the cells to increase βCTF level. Commercially available peptide-based β-secretase inhibitor was included as control (Lane 6, FIG. 11). To detect the N-terminal fragment of β-amyloid which is a product of APP processing, 6E10 antibody was employed. […] Recently, it has been reported that the commercially available peptide-based inhibitor had to be linked to an oligoarginine transporter peptide to have inhibitory activity against cells. Therefore, mimetic approach is adopted to produce cell permeable analogs. (Chang et al. J. Neurochemistry 2004; 89:1409-1416).
After confirming the ability of the oligo-arginine coupled APP inhibitors to enter the cells, the inhibitors were applied to HEK293-APP cells overexpressing APP to test their inhibitory activities on APP processing. […] This inhibitor started to show significant inhibitory activity beginning from 0.1 μM (lower panel).

[2] = system: Substrate M (Sub M, SEVNLDAEFR; β-secretase cleavage site of APPsw); test: Binding of biotin-labeled Substrate M to immobilized complementary (HC) peptides; conditions: for binding activity for Sub M: HC peptides chemically coupled to plate, bio-Sub M
Description: (§1) Complementary peptides (0.2, 2, 20, and 200 μM) were dissolved in phosphate buffered saline (PBS) (pH 7.4) and fixed to microtiter wells for 5 hr at 37° C. The wells were blocked with blocking buffer (3% BSA/PBS) for 1 hr at 37° C. Either N-terminally biotinylated Substrate W or M (20 μM) in blocking buffer was added and incubated for overnight at 4° C. Streptavidin-horseradish peroxidase in blocking buffer was added to detect resulting bound substrates. The plate was incubated for 2 hr at room temperature (RT), followed by addition of 3,3′,5,5′-tetramethyl-benzidine (TMB) as substrate for horseradish peroxidase for color reaction.
(§2) Reacti-Bind™ maleic anhydride-activated polystyrene plate (Pierce, IL, USA) was coated with 50 μl of HC peptide (200 μM in distilled water) by chemical coupling for 3 h at room temperature (RT) and washed three times with phosphate buffered saline (PBS) containing 0.05% tween 20 (PBST). The plate was blocked with blocking buffer (0.5% gelatin in PBS) for 1 h at RT. After discarding blocking buffer, biotinylated BACE1 substrates (200 μM) in blocking buffer was applied on the plate and incubated for 2.5 h at RT. Each well was washed three times with PBST. The bound biotinylated BACE1 substrates were detected by incubation with streptavidin-horseradish peroxidase (Str-HRP, 125 mU/ml in blocking buffer) for 2 h at RT. Color reaction was carried out with 50 μl of 3,3′,5,5′-Tetramethylbenzidine Liquid Substrate (Sigma-Aldrich, MO, USA). After stopping the reaction by addition of an equal volume of 1 N HCl, absorbance at 450 nm was read in an automated ELISA reader (EL 312e, Bio-Tek Instruments, VT, USA). All assays were carried out in duplicate.

[3] = system: cleavage of F-Substrate M (f-Sub M) by rhBACE1; test: Fluorometric (FRET) assay for cleavage of F-Substrate M by rhBACE; assay type: biochemical, human; conditions: for inhibitory activity for cleavage of f-Sub M by rhBACE1: f-Sub M 10 μM
Source text: This assay system utilizes fluorescence resonance energy transfer (FRET) technology. Substrate M was synthesized with two fluorophores, a fluorescent donor and a proprietary quenching acceptor (purchased from a commercial source, R&D Systems). […] Upon cleavage of substrate by β-secretase, the fluorophore is separated from the quenching group, restoring the full fluorescence yield of donor.
Substrate labeled with fluorophores will be called F-Substrate M (R&D Systems). Recombinant human β-secretase will be called rhBACE (recombinant human β-site APP cleavage enzyme) (purchased from R&D systems).
F-Substrate M (20 μM) was preincubated with varying concentrations of complementary peptides in assay buffer (0.1 M NaOAc, pH 4.0) for 1 hr at RT. rhBACE (70 nM) in assay buffer was added. Cleavage by rhBACE was detected by reading emitted fluorescence level.
In this assay system, fluorescence resonance energy transfer (FRET) technology was utilized. Swedish mutant APP substrate (f-Sub M) with a fluorescent donor and a proprietary quenching acceptor (7-methoxycoumarin-4-acetyl-SEVNLDAEFRK(Dnp)-RR-NH2) was purchased from R&D systems, Inc (MN, USA). […] Upon cleavage of substrate by rhBACE1 (R&D Systems, Inc., MN, USA), the fluorescence donor is separated from the quenching group, restoring the full fluorescence yield of the donor. f-Sub M (10 μM) was pre-incubated with HC peptide in assay buffer (0.1 M NaOAc, pH 4.0) for 2 h at RT. After pre-incubation, substrate and HC peptide mixture in assay buffer was transferred to FluoroNunc™ 96 well white plate (Nunc, Roskilde, Denmark), and rhBACE1 (70 nM) was added. Time-dependent emission of fluorescence (excitation at 320 nm, emission at 405 nm) was monitored in a Molecular Devices SpectraMax Gemini EM fluorescence reader (CA, USA) for 1 h at 37° C. All assays were carried out in duplicate.

[4] = system: cleavage of Substrate M by β-secretase; test: Inhibition of cleavage of Substrate M by β-secretase by complementary and deletion peptides (Examples 1, 5, 6; assay format not stated); assay type: biochemical; conditions: for inhibitory activity of deletion peptides on cleavage of Substrate M: 10 inhibitor/substrate ratio, Substrate M 50 μM; for concentration dependent inhibitory activity, activity group: various concentrations, Substrate M (FIG. 8); for inhibition of cleavage of Substrate M by β-secretase: FIG. 4
Description: So far we have focused on c-Sub M peptide. Serial deletions were made from N-terminus or C-terminus of c-Sub M (FIG. 5), and we investigated effect of the deletions on the cleavage of Substrate M. The optimum peptide/substrate ratio for inhibition on the cleavage of substrate was determined by observing the inhibition percentage at various peptide/substrate ratios (FIG. 4). Subsequently, the inhibitory activity of the deletion peptides were tested at 10 inhibitor/substrate ratio and the concentration of the Substrate M was 50 μM. Deletion of the first two amino acids from the N-terminus had little effect on the activity and deletion of five amino acids from the C-terminus of c-Sub M had little effect on the inhibitory activity (FIG. 6). Further deleted peptides were tested for inhibitory activity on the cleavage of Substrate M (FIG. 7).
The above-mentioned peptides that have inhibitory activity were tested at various concentrations for their inhibitory activities on their mutant substrate Substrate M (FIG. 8).

[5] = target: T1, Substrate W (Sub W, SEVKMDAEFR; β-secretase cleavage site of wild type APP) (Homo sapiens, UniProt P05067); test: Binding of biotin-labeled Substrate W to immobilized complementary (HC) peptides; conditions: complementary peptide immobilized, biotin-labeled Substrate W
T1 construct: […]; purchased Peptron, Inc; host or cells: chemical synthesis
Description: as §1
In particular, for Substrate W, complementary peptides (200 μM) dissolved in phosphate buffered saline (PBS) (pH 7.4) were chemically coupled to Reacti-Bind Maleic Anhydride Activated Polystyrene wells (Pierce Biotechnology, Inc.) for overnight at room temperature (RT). Remaining active sites of the plate were inactivated by adding ethanolamine (1 M) for 1 hr at RT. The wells were blocked with blocking buffer (3% BSA/PBS) for 1 hr at RT. N-terminally biotinylated Substrate W (20 μM) in blocking buffer was added and incubated for 3 hr at RT. Streptavidin-horseradish peroxidase in blocking buffer was added to detect resulting bound substrates. The plate was incubated for 2 hr at room temperature (RT), followed by addition of 3,3′,5,5′-tetramethyl-benzidine (TMB) as substrate for horseradish peroxidase for color reaction.
as §2

[6] = target: T2, f-Sub M (7-methoxycoumarin-4-acetyl-SEVNLDAEFRK(Dnp)-RR-NH2); test: cell-based or functional assay
T2 peptide: Mca-SEVNLDAEFRK(Dnp)RR-NH2

[7] = target: T3, N-terminally biotinylated Substrate W; test: plate assay: HC peptide chemically coupled to wells, bio-Sub W, streptavidin-HRP (FIG. 27)
T3 construct: also called bio-Sub W; Sub W
T3 peptide: Biotin-SEVKMDAEFR
Description: as §2
Thereafter, it was investigated if the c-Sub M and the deletions series bind to wild type Sub W. The results will give us important information on possibility of inhibition of wild type of APP cleavage in cells by the HC peptides derived from Sub M in view of the poor cleavage of Sub W by rhBACE1 in vitro. […] Thus, there is possibility that the HC peptides for Sub M (c-Sub M series) or its peptidomimetics will inhibit the cleavage of wild type APP by BACE1 in cells.

Sub-ST6Ga11 = target: T4, Sub-ST6Ga11; test: cell-based or functional assay
T4 peptide: DYEALTLQAKEFQMPKSQE

[8] = target: T5, Substrate M (non-labeled); test: cell-based or functional assay
T5 peptide: SEVNLDAEFR

SEFC (also: cyclic, mode of cyclisation not given here) [c-Sub MΔC6]
inhibitory activity on APP processing (βCTF) [1]: none of the inhibitors tested showed inhibitory activity
absorbance in binding test ([2]; substrate not specified): high absorbance

CIQIHF (also: cyclic, mode of cyclisation not given here) [c-Sub M ΔN3C1]
inhibitory activity for cleavage of f-Sub M by rhBACE1 ([3]; N-terminal deletions of c-Sub M ΔC1, HC peptide 0.5 mM): maintains much of the original activity of c-Sub M; also recorded: without sacrificing the inhibitory activity too much
inhibitory activity relative to c-Sub M ΔN1C1 ([3]; substrate concentration 10 μM): about one tenth
inhibitory activity of deletion peptides on cleavage of Substrate M [4]: considerable inhibitory activity
concentration dependent inhibitory activity, activity group [4]: less activity

SEFCI (also: cyclic, mode of cyclisation not given here) [c-SubM ΔC5]
concentration dependent inhibitory activity, activity group [4]: medium activity

RLHFYLRLKA [Sub W-c]
inhibition of cleavage of Substrate M by β-secretase [4]: do not inhibit cleavage
binding to Substrate W [5]: do not bind

SEFCIQIHF [c-Sub M ΔC1]
binding activity for Sub M [2]: relatively high binding activity

RLHLDLRLKA [Sub M-c]
inhibition of cleavage of Substrate M by β-secretase [4]: do not inhibit cleavage
binding to Substrate M ([2]; complementary peptide immobilized, biotin-labeled Substrate M): do not bind

SEFCIQI (also: cyclic, mode of cyclisation not given here) [c-SubM ΔC3]
concentration dependent inhibitory activity, activity group [4]: most active group

SEFCIHLHFR (also: cyclic, mode of cyclisation not given here) [c-Sub W]
inhibitory activity for cleavage of f-Sub M by rhBACE1 ([3]; HC peptide 1 mM): higher inhibitory activity
inhibition of cleavage of Substrate M by β-secretase [4]: inhibit cleavage
concentration dependent inhibitory activity, activity group [4]: medium activity
binding to Substrate W [5]: bind
binding activity for Sub M [2]: weak but significant binding

CIQI [C-Sub MΔN3C3]
inhibitory activity of deletion peptides on cleavage of Substrate M [4]: considerable inhibitory activity
concentration dependent inhibitory activity, activity group [4]: medium activity

B1: c-Sub M ΔC5 (peptide)
peptide: SEFCI-NH2
inhibitory activity for the cleavage of f-Sub M by rhBACE1 (FRET; HC peptide 1 mM, f-Sub M 10 µM) [6]: > 90%

B2: c-Sub M ΔN3C1 (peptide)
peptide: CIQIHF-NH2
notes: also called c-Sub M ΔC1N3; c-Sub ΔN3C1
inhibitory activity relative to c-Sub M ΔN1C1, f-Sub M (10 µM) cleavage by rhBACE1 (FRET) [6]: ~0.1 fold of c-Sub M ΔN1C1
binding result [7]: binds

B3: c-Sub M ΔC4 (peptide)
peptide: SEFCIQ-NH2
inhibitory activity for the cleavage of f-Sub M by rhBACE1 (FRET; HC peptide 1 mM, f-Sub M 10 µM) [6]: > 90%

B4: c-Sub M ΔN2C1 (peptide)
peptide: FCIQIHF-NH2
notes: also called FCIQIHF
percent of ST6Ga11 peptide cleavage by β-secretase blocked (HPLC), 25-fold inhibitor (Sub-ST6Ga11): 25%
percent of Sub M cleavage by β-secretase blocked (HPLC), 25-fold inhibitor [8]: ~60%
binding result [7]: binds

B5: c-Sub M ΔC3 (peptide)
peptide: SEFCIQI-NH2
inhibitory activity for the cleavage of f-Sub M by rhBACE1 (FRET; HC peptide 1 mM, f-Sub M 10 µM) [6]: > 90%

B6: c-Sub M ΔC2 (peptide)
peptide: SEFCIQIH-NH2
inhibitory activity for the cleavage of f-Sub M by rhBACE1 (FRET; HC peptide 1 mM, f-Sub M 10 µM) [6]: 44%

B7: c-Sub M ΔN1C1 (peptide)
peptide: EFCIQIHF-NH2
notes: also called one amino acid deletion from N-terminal of c-Sub M ΔC1
inhibition of the cleavage of Sub-ST6Ga11 by rhBACE1 (HPLC), inhibitor/substrate ratio 20 (Sub-ST6Ga11): 40%
inhibition of the cleavage of Sub-ST6Ga11 by rhBACE1 (HPLC), up to 10 inhibitor/substrate ratio (Sub-ST6Ga11): ~10%
inhibition of the cleavage of Sub M by rhBACE1 (HPLC), inhibitor/substrate ratio 20 [8]: 100%
inhibition of the cleavage of Sub M by rhBACE1 (HPLC), up to 10 inhibitor/substrate ratio [8]: 60%
IC50 of inhibition of f-Sub M (10 µM) cleavage by rhBACE1 (FRET) [6]: 15 µM
fold binding to Sub W relative to c-Sub W [7]: 2.5 fold

B8: 6-aminohexanoic acid-c-Sub M ΔN3C1 (peptide)
peptide: [Ahx]CIQIHF-NH2
modifications: N-terminus assumed
SMILES: CC[C@H](C)[C@H](NC(=O)[C@H](CCC(N)=O)NC(=O)[C@@H](NC(=O)[C@H](CS)NC(=O)CCCCCN)[C@@H](C)CC)C(=O)N[C@@H](Cc1c[nH]cn1)C(=O)N[C@@H](Cc1ccccc1)C(N)=O
in vitro inhibitory activity on cleavage of f-Sub M by rhBACE1 relative to c-Sub M ΔN3C1 (FRET) [6]: ~0.5 fold of c-Sub M ΔN3C1
